Results: ChEMBL document CHEMBL4033609, “Naphthablins B and C, Meroterpenoids Identified from the Marine Sediment-Derived Streptomyces sp. CP26-58 Using HeLa Cell-Based Cytological Profiling” (J Nat Prod, 2017)
Activity calls are given as the source filed them. The calls are words filed in the database; no cut-off is given here.

Assays:
HeLa [1] = experiment: Growth inhibition of human HeLa cells at 33 uM; type: functional; conditions: read-out: GI
HeLa [2] = experiment: Cytotoxic activity against human HeLa cells at 1.47 uM by cytological profiling assay; type: functional, cell-based
HeLa [3] = experiment: Cytotoxic activity against human HeLa cells at 0.295 uM by cytological profiling assay; type: functional, cell-based
HeLa [4] = experiment: Cytotoxic activity against human HeLa cells at 0.382 uM by cytological profiling assay; type: functional, cell-based
HeLa [5] = experiment: Cytotoxic activity against human HeLa cells at 1.91 uM by cytological profiling assay; type: functional, cell-based
HeLa [6] = experiment: Cytotoxic activity against human HeLa cells at 1.25 to 10 uM by cytological profiling assay; type: functional, cell-based
HeLa [7] = experiment: Cytotoxic activity against human HeLa cells; type: functional, cell-based

`C=CC(C)(CO)c1c(O)cc2c(c1O)C(=O)C1=C(C2=O)[C@@H]2C[C@@H](C)[C@@H](OC(=O)C(C)C)C[C@@H]2C(C)(C)O1` (some centres undefined) gave an inhibition of growth at 33 µM (HeLa [1]) of 19%.
Work on `CCC(C)C(=O)O[C@H]1C[C@H]2[C@@H](C[C@H]1C)C1=C(OC2(C)C)C(=O)c2c(cc(O)c3c2O[C@@H]2[C@@H](O)OC[C@]32C)C1=O` (some centres undefined) yielded an inhibition of growth at 33 µM (HeLa [1]) of 25%.
`C[C@H](CCC(=O)O)C[C@H](C)C[C@H](C)C(=O)/C=C(\O)[C@H](C)C[C@H](C)C/C=C/[C@@H](C)[C@@H](O)[C@@H](C)[C@@H](O)C[C@@H]1CC[C@@](C)([C@H]2CC[C@@](C)([C@@H](C)O)O2)O1` was tested, and the Activity (HeLa [2]) was “Active” and the Activity (HeLa [3]) was “Active”.
In the case of `CNc1ccc2oc(C[C@H]3O[C@@]4(CC[C@H]3C)O[C@H]([C@H](C)C(=O)c3ccc[nH]3)[C@H](C)C[C@H]4C)nc2c1C(=O)O`, the Activity (HeLa [4]) is reported as “Active” and the Activity (HeLa [5]) is reported as “Active”.
In the case of `CO[C@@H](C)[C@H]1C[C@H](C)[C@H]([C@@H](C)/C=C/[C@@H]2CC[C@@H](C)[C@H](/C(=C/[C@H]3CCC[C@@H](C)[C@@H]3[C@H](C)C(=O)C3=C(O)COC3=O)CO)O2)O1` [TETRONASIN 5930], the Activity (HeLa [6]) is reported as “Active” and the IC50 (HeLa [7]) is reported as 230 nM.
`CC(C)C(=O)O[C@H]1C[C@H]2[C@@H](C[C@H]1C)C1=C(OC2(C)C)C(=O)c2c(cc(O)c3c2O[C@@H]2[C@@H](O)OC[C@]32C)C1=O` showed an inhibition of growth at 33 µM (HeLa [1]) of 32%.
